Test results reported in patent US8575091B1, “Amylin analogues and pharmaceutical compositions thereof” (Novo Nordisk A/S, priority 2012, dated 2013).
Read-outs that look alike come from different tables or passages of the source. Numbered stars: 1 amine (or outer) side, 2 acyl side, 3 side chain; on linkers, the order of the positions; unused ones are H or OH. Bridge positions count the residues as written; N and C are the ends. Side chains are listed from the residue outwards. Peptide text beside a SMILES is read from it. * marks the point of attachment. C20 diacid = O=C(O)CCCCCCCCCCCCCCCCCCC(=O)*; γGlu = O=C(O)[C@H](CCC(=O)[*:2])N[*:1]; AEEA = NCCOCCOCC(=O)O

Legend:
[1] = target: T1, human calcitonin receptor (Homo sapiens, UniProt P30988); experiment: Assay (VII) binding to the human calcitonin receptor (SPA, 125I-Calcitonin); settings: read-out: hCTR bind IC50;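 also: cell membranes coupled to SPA beads, competitive displacement read by scintillation counting, IC50 derived from a one-site competition fit as a measure of receptor affinity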
T1 construct: expressed in transfected cells
T1 sequence (P30988 25-474): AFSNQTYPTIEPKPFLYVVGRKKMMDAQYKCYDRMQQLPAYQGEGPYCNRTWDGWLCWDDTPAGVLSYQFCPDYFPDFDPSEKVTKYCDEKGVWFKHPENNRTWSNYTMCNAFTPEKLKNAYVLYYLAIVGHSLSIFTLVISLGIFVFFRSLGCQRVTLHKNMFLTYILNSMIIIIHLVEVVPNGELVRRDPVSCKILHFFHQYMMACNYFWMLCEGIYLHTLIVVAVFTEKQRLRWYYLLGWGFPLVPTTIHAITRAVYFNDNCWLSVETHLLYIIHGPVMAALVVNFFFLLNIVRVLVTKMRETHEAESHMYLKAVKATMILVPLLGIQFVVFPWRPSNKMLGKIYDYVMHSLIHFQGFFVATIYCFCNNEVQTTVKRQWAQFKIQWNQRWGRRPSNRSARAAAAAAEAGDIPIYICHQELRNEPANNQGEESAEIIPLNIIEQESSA

[2] = target: T1, human calcitonin receptor; experiment: Assay (II)a functional assay, human calcitonin receptor (CRE luciferase, BHK cells);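 also: luminescence from a CRE-driven luciferase reporter, read by single photon counting after cells were exposed to test samples for 3 h at 37 °C under 5% CO2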; assay type: cell-based; settings: read-out: hCTR funct. EC50
[3] = Assay (IV) determination of solubility; assay type: physicochemical; settings: for Solubility pH 6.5 Concentration (μM): pH 6.5, 18 hours room temperature; for Solubility pH 7.0 Concentration (μM): pH 7.0, 18 hours room temperature; for Solubility pH 7.5 Concentration (μM): pH 7.5, 18 hours room temperature; for Solubility pH 8.0 Concentration (μM): pH 8.0, 18 hours room temperature
Method: Assay (IV)—Determination of Solubility
The polypeptide was dissolved in water at ˜500 nmol/ml and mixed 1:1 with a series of buffers (100 mM glycylglycine pH 3.0, 100 mM glycylglycine pH 4.0, 100 mM glycylglycine pH 5.0, 100 mM bistrispropane pH 6.0, 100 mM bistrispropane pH 6.5, 100 mM bistrispropane pH 7.0, 100 mM bistrispropane pH 7.5, 100 mM bistrispropane pH 8.0). After 18 hours at room temperature the samples were centrifuged and the polypeptide concentration determined by UPLC.

human amylin receptor = target: T2, human amylin receptor (Homo sapiens, UniProt O60896+P30988); experiment: Assay (V) binding to the human amylin receptor (SPA, 125I-rat amylin); settings: for IC50: read-out: hAmylin-R bind IC50
T2 construct: expressed in transfected cells
T2 sequence (P30988 25-474): T1 sequence (P30988 25-474)
T2 sequence (O60896 24-148 partner): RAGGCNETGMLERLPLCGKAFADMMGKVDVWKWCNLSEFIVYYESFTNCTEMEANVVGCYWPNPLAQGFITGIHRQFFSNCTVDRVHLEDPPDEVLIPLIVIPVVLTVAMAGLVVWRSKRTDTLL
Method in brief: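 SPA competition binding on membranes from Amylin 3(a)/CRE-luc cells, 35 ng/μL membranes with 0.05 mg/well beads. Buffer 50 mM Hepes pH 7.4, 1 mM CaCl2, 5 mM MgCl2, 0.1% OA, 0.02% Tween20. IC50 from one-site competition fit as affinity measure.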

[4] = target: T3, human amylin receptor (amylin 3(a) receptor: human calcitonin receptor + RAMP-3) (Homo sapiens, UniProt O60896+P30988); experiment: Assay (II)a functional assay, human amylin receptor (CRE luciferase, BHK cells); assay type: cell-based; settings: for EC50: functional assay, human amylin receptor, read-out: hAmylin-R funct. EC50
T3 construct: expressed in transfected cells
T3 sequence (P30988 25-474): T1 sequence (P30988 25-474)
T3 sequence (O60896 24-148 partner): T2 sequence (O60896 24-148 partner)

[5] = human amylin receptor membranes, SPA
[6] = Table 6, human functional selectivity (hCTR EC50 / hAmylin-R EC50)
[7] = Table 6a, human functional selectivity (hCTR EC50 / hAmylin-R EC50), at least 5
[8] = Table 6j, hCTR funct. EC50 / hAmylin-R funct. EC50
[9] = Table 6k, hCTR funct. EC50 / hAmylin-R funct. EC50

IC50 [1] | EC50 [2] | Solubility pH 6.5 Concentration (μM) [3] | Solubility pH 7.0 Concentration (μM) [3] | Solubility pH 7.5 Concentration (μM) [3] | Solubility pH 8.0 Concentration (μM) [3] | IC50 (human amylin receptor; [5]) | Ratio hCT/hAmylin funct. [4, 6] | Ratio hCT/hAmylin funct. [4, 7] | Ratio hCT/hAmylin funct. [4, 8] | Ratio hCT/hAmylin funct. [4, 9] | EC50 [4] | Solubility pH 4.0 Concentration (μM) ([3]; pH 4.0, 18 hours room temperature) | Solubility pH 6.0 Concentration (μM) ([3]; pH 6.0, 18 hours room temperature) | IC50 (human amylin receptor; binding to human amylin receptor) | Ratio hCT/hAmylin binding (human amylin receptor; human binding ratio, included for comparison) | Compound
58.9 nM | 11.7 nM | ≧200 μM | ≧200 μM | 88 μM | 43 μM | 0.568 nM | 33.0 | 33.0 | 33.0 | 33.0 | 0.356 nM | – | – | – | – | CC[C@H](C)[C@H](NC(=O)[C@H](C)NC(=O)CNC(=O)[C@H](Cc1ccccc1)NC(=O)[C@H](CC(N)=O)NC(=O)[C@@H]1CCCN1C(=O)[C@H](CO)NC(=O)[C@H](CO)NC(=O)[C@H](Cc1c[nH]cn1)NC(=O)[C@H](CCCNC(=N)N)NC(=O)[C@H](CC(C)C)NC(=O)[C@H](Cc1ccccc1)NC(=O)[C@H](CC(N)=O)NC(=O)[C@H](C)NC(=O)[C@H](CC(C)C)NC(=O)[C@H](CCCNC(=N)N)NC(=O)[C@H](CCC(N)=O)NC(=O)[C@@H](NC(=O)[C@H](C)NC(=O)[C@@H]1CSSC[C@H](NC(=O)[C@@H](N)CCCCNC(=O)COCCOCCNC(=O)COCCOCCNC(=O)CC[C@H](NC(=O)CCCCCCCCCCCCCCCCCCC(=O)O)C(=O)O)C(=O)N[C@@H](CC(N)=O)C(=O)N[C@@H]([C@@H](C)O)C(=O)N[C@@H](C)C(=O)N[C@@H]([C@@H](C)O)C(=O)N1)[C@@H](C)O)C(=O)N1CCC[C@H]1C(=O)N[C@@H](CO)C(=O)N[C@@H](CO)C(=O)N[C@H](C(=O)N[C@@H](CC(N)=O)C(=O)N[C@H](C(=O)NCC(=O)N[C@@H](Cc1c[nH]cn1)C(=O)N[C@@H](CC(N)=O)C(=O)N[C@H](C(=O)N[C@@H](Cc1ccc(O)cc1)C(N)=O)[C@@H](C)O)C(C)C)[C@@H](C)O [Example 97]
50.7 nM | 5.4 nM | ≧200 μM | ≧200 μM | 147 μM | 59 μM | 0.428 nM | – | – | – | – | 0.145 nM | – | – | – | – | CC[C@H](C)[C@H](NC(=O)[C@H](C)NC(=O)CNC(=O)[C@H](Cc1ccccc1)NC(=O)[C@H](CC(N)=O)NC(=O)[C@@H]1CCCN1C(=O)[C@H](CO)NC(=O)[C@H](CO)NC(=O)[C@H](Cc1c[nH]cn1)NC(=O)[C@H](CCCNC(=N)N)NC(=O)[C@H](CC(C)C)NC(=O)[C@H](Cc1ccccc1)NC(=O)[C@H](CC(N)=O)NC(=O)[C@H](C)NC(=O)[C@H](CC(C)C)NC(=O)[C@H](CCCNC(=N)N)NC(=O)[C@H](CCC(N)=O)NC(=O)[C@@H](NC(=O)[C@H](C)NC(=O)[C@@H]1CSSC[C@H](NC(=O)[C@@H](N)CCCCNC(=O)CC[C@H](NC(=O)CCCCCCCCCCCCCCCCCCC(=O)O)C(=O)O)C(=O)N[C@@H](CC(N)=O)C(=O)N[C@@H]([C@@H](C)O)C(=O)N[C@@H](C)C(=O)N[C@@H]([C@@H](C)O)C(=O)N1)[C@@H](C)O)C(=O)N1CCC[C@H]1C(=O)N[C@@H](CO)C(=O)N[C@@H](CO)C(=O)N[C@H](C(=O)N[C@@H](CC(N)=O)C(=O)N[C@H](C(=O)NCC(=O)N[C@@H](Cc1c[nH]cn1)C(=O)N[C@@H](CC(N)=O)C(=O)N[C@H](C(=O)N[C@@H](Cc1ccc(O)cc1)C(N)=O)[C@@H](C)O)C(C)C)[C@@H](C)O [Example 77]
9.29 nM | 89.6 nM | – | – | – | – | 1.19 nM | – | – | – | – | 5.17 nM | 7 μM | 64 μM | 1.19 nM | 7.8 | CC[C@H](C)[C@H](NC(=O)[C@H](C)NC(=O)CNC(=O)[C@@H]1CCCN1C(=O)[C@H](CC(N)=O)NC(=O)[C@H](CC(N)=O)NC(=O)[C@H](CO)NC(=O)[C@H](CO)NC(=O)[C@H](Cc1c[nH]cn1)NC(=O)[C@H](CCCNC(=N)N)NC(=O)[C@H](CC(C)C)NC(=O)[C@H](Cc1ccccc1)NC(=O)[C@H](CCC(=O)O)NC(=O)[C@H](C)NC(=O)[C@H](CC(C)C)NC(=O)[C@H](CCCNC(=N)N)NC(=O)[C@H](CCC(N)=O)NC(=O)[C@@H](NC(=O)[C@H](C)NC(=O)[C@@H]1CSSC[C@H](NC(=O)[C@@H](N)CCCCNC(=O)CC[C@H](NC(=O)CC[C@H](NC(=O)CCCCCCCCCCCCCCCCCCC(=O)O)C(=O)O)C(=O)O)C(=O)N[C@@H](CC(N)=O)C(=O)N[C@@H]([C@@H](C)O)C(=O)N[C@@H](C)C(=O)N[C@@H]([C@@H](C)O)C(=O)N1)[C@@H](C)O)C(=O)N[C@@H](CC(C)C)C(=O)N[C@@H](CO)C(=O)N[C@@H](CO)C(=O)N[C@H](C(=O)N[C@@H](CC(N)=O)C(=O)N[C@H](C(=O)NCC(=O)N1CCC[C@H]1C(=O)N[C@@H](CCC(=O)O)C(=O)N[C@H](C(=O)N[C@@H](Cc1ccc(O)cc1)C(N)=O)[C@@H](C)O)C(C)C)[C@@H](C)O [Example 126] (H-K([γGlu-γGlu-C20 diacid])CNTATCATQRLAEFLRHSSNNPGAILSSTNVGPETY-NH2; disulfide 2-7)
9.63 nM | 1.03 nM | ≧200 μM | ≧200 μM | 96 μM | 48 μM | 0.088 nM | – | – | – | – | 0.047 nM | – | – | – | – | CC[C@H](C)[C@H](NC(=O)[C@H](C)NC(=O)CNC(=O)[C@H](Cc1ccccc1)NC(=O)[C@H](CC(N)=O)NC(=O)[C@@H]1CCCN1C(=O)[C@H](CO)NC(=O)[C@H](CO)NC(=O)[C@H](Cc1c[nH]cn1)NC(=O)[C@H](CCCNC(=N)N)NC(=O)[C@H](CC(C)C)NC(=O)[C@H](Cc1ccccc1)NC(=O)[C@H](CC(N)=O)NC(=O)[C@H](C)NC(=O)[C@H](CC(C)C)NC(=O)[C@H](CCCNC(=N)N)NC(=O)[C@H](CCC(N)=O)NC(=O)[C@@H](NC(=O)[C@H](C)NC(=O)[C@@H]1CSSC[C@H](NC(=O)[C@@H](N)CCCCNC(=O)COCCOCCNC(=O)CC[C@H](NC(=O)CCCCCCCCCCCCCCCCCCC(=O)O)C(=O)O)C(=O)N[C@@H](CC(N)=O)C(=O)N[C@@H]([C@@H](C)O)C(=O)N[C@@H](C)C(=O)N[C@@H]([C@@H](C)O)C(=O)N1)[C@@H](C)O)C(=O)N1CCC[C@H]1C(=O)N[C@@H](CO)C(=O)N[C@@H](CO)C(=O)N[C@H](C(=O)N[C@@H](CC(N)=O)C(=O)N[C@H](C(=O)NCC(=O)N1CCC[C@H]1C(=O)N[C@@H](Cc1c[nH]cn1)C(=O)N[C@H](C(=O)N[C@@H](Cc1ccc(O)cc1)C(N)=O)[C@@H](C)O)C(C)C)[C@@H](C)O [Example 58] (H-K([AEEA-γGlu-C20 diacid])CNTATCATQRLANFLRHSSPNFGAIPSSTNVGPHTY-NH2; disulfide 2-7)
66.3 nM | 1.73 nM | ≧200 μM | 109 μM | 26 μM | 31 μM | 1.02 nM | 6.8 | 6.8 | 6.8 | 6.8 | 0.253 nM | – | – | – | – | CC[C@H](C)[C@H](NC(=O)[C@H](C)NC(=O)CNC(=O)[C@H](Cc1ccccc1)NC(=O)[C@H](CC(N)=O)NC(=O)[C@@H]1CCCN1C(=O)[C@H](CO)NC(=O)[C@H](CO)NC(=O)[C@H](Cc1c[nH]cn1)NC(=O)[C@H](CCCNC(=N)N)NC(=O)[C@H](CC(C)C)NC(=O)[C@H](Cc1ccccc1)NC(=O)[C@H](Cc1c[nH]cn1)NC(=O)[C@H](C)NC(=O)[C@H](CC(C)C)NC(=O)[C@H](CCCNC(=N)N)NC(=O)[C@H](CCC(N)=O)NC(=O)[C@@H](NC(=O)[C@H](C)NC(=O)[C@@H]1CSSC[C@H](NC(=O)[C@H](CCCNC(=N)N)NC(=O)CNC(=O)CC[C@H](NC(=O)CCCCCCCCCCCCCCCCCCC(=O)O)C(=O)O)C(=O)N[C@@H](CC(N)=O)C(=O)N[C@@H]([C@@H](C)O)C(=O)N[C@@H](C)C(=O)N[C@@H]([C@@H](C)O)C(=O)N1)[C@@H](C)O)C(=O)N1CCC[C@H]1C(=O)N[C@@H](CO)C(=O)N[C@@H](CO)C(=O)N[C@H](C(=O)N[C@@H](CC(N)=O)C(=O)N[C@H](C(=O)NCC(=O)N[C@@H](Cc1c[nH]cn1)C(=O)N[C@@H](CC(N)=O)C(=O)N[C@H](C(=O)N[C@@H](Cc1ccc(O)cc1)C(N)=O)[C@@H](C)O)C(C)C)[C@@H](C)O [Example 100] ({C20 diacid-γGlu}-GRCNTATCATQRLAHFLRHSSPNFGAIPSSTNVGHNTY-NH2; disulfide 3-8)
